Experimental data reported in paper PMC9336311 (Cell reports, 2022).

Legend:
CaMKII kinase domain [1] = target: CaMKII kinase domain (Homo sapiens, UniProt Q9UQM7, D135N); assay: Fluorescence polarization competition assay against GluN2B; format: binding; settings: FP competition, up to low millimolar concentrations
[2] = target: CaMKII kinase domain (D135N) (Homo sapiens, UniProt Q9UQM7, D135N); assay: ITC binding to D135N CaMKII kinase domain; settings: protein/peptide concentrations high enough to characterize a Kd of several hundred micromolar
CaMKII kinase domain (D135N), sequence (Q9UQM7 7-274 D135N): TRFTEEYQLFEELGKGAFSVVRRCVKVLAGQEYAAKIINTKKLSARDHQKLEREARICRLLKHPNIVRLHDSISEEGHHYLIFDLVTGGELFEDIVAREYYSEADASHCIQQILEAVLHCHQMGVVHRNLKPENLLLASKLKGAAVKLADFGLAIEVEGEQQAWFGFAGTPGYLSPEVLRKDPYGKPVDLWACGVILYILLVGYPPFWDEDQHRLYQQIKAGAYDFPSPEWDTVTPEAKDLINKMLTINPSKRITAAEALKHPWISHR

CaMKII kinase domain [3] = target: CaMKII kinase domain (Homo sapiens, UniProt Q9UQM7); assay: Coupled kinase assay with Syntide-2 as substrate; format: biochemical; settings: saturating GluN2B S1303D or high levels of CaMKIIN
CaMKII kinase domain (Homo sapiens, UniProt Q9UQM7), sequence (Q9UQM7 7-274): as the sequence (Q9UQM7 7-274 D135N) above, with N129D counted along it

CaMKII kinase domain (Homo sapiens, UniProt Q9UQM7, D135N), sequence (Q9UQM7 7-274 D135N): as the sequence (Q9UQM7 7-274 D135N) above

| effect on Syntide-2 phosphorylation (CaMKII kinase domain [3]) | Sequence | competition with GluN2B peptide (CaMKII kinase domain [1]) | binding in ITC [2] |
| --- | --- | --- | --- |
| – | PLARTLSVAGLPGKK [Syntide-2] | could not be competed off | did not see any appreciable binding |
| completely inhibit | MSEILPYGEDKMGRFGADPEGSDLSFSCRLQDTNSFFAGNQAKRPPKLGQIGRAKRVVIEDDRIDDVLKGMGEKPPSGV [CaMKIIN] | – | – |
